Results: PubChem BioAssay AID344 (DTP/NCI, 2004)
Values joined by “and” are separate entries in the source; they are usually repeats but may differ in a detail not shown here. Equal entries are not always repeated. Toxic doses and inconclusive results are not listed.

System: mice, LPC-1 plasma cell tumor ip, median survival T/C
Experiment: NCI In Vivo Anticancer Drug Screen. Data for tumor model Lieberman Plasma Cell No. 1 (LPC-1) (intraperitoneal) in unknown mice
Settings: endpoint: median survival time, higher = longer survival
Experimental: The antitumor activity of compounds was measured in mice bearing transplantable tumors. Survival or tumor size were measured and the results are expressed as the measurement made in the treated group (T) divided by the measurement made in the vehicle treated control group (C). The tumor model used in this assay is Lieberman Plasma Cell No. 1 (LPC-1) (intraperitoneal) in unknown mice

[1] = dose: 200.0 mg/kg/injection, schedule: Q01DX028 (sc), vehicle: steriod suspending solution
[2] = dose: 400.0 mg/kg/injection, schedule: Q01DX028 (sc), vehicle: steriod suspending solution

How did the T/C (dose: 0.57 mg/kg/injection, schedule: Q01DX024 (oral), vehicle: carboxymethylcellulose (CMC)) turn out when `N[C@@H](Cc1ccc(N(CCCl)CCCl)cc1)C(=O)O` was run?
Its T/C is 92 % of control.

And the T/C (dose: 0.64 mg/kg/injection, schedule: Q01DX028 (sc), vehicle: saline)?
The T/C was 170 % of control.

And the T/C (dose: 0.65 mg/kg/injection, schedule: Q## X024 (sc), vehicle: saline)?
Its T/C is 96 % of control.

What about the T/C (dose: 1.07 mg/kg/injection, schedule: Q01DX028 (sc), vehicle: saline) of the same compound?
Its T/C is 107 % of control.

What about the T/C (dose: 1.08 mg/kg/injection, schedule: Q01DX008 (sc), vehicle: saline) of the same compound?
The T/C was 96 % of control.

What about the T/C (dose: 1.08 mg/kg/injection, schedule: Q01DX009 (sc), vehicle: saline) of the same compound?
Its T/C is 103 % of control.

What about the T/C (dose: 1.08 mg/kg/injection, schedule: Q## X024 (sc), vehicle: saline) of the same compound?
Its T/C is 96 % of control.

And the T/C (dose: 1.15 mg/kg/injection, schedule: Q01DX024 (oral), vehicle: carboxymethylcellulose (CMC))?
The T/C was 100 % of control.

And the T/C (dose: 1.7 mg/kg/injection, schedule: Q01DX028 (sc), vehicle: saline)?
Its T/C is 182 % of control.

And the T/C (dose: 1.8 mg/kg/injection, schedule: Q01DX005 (sc), vehicle: saline)?
Its T/C is 381 % of control.

And the T/C (dose: 1.8 mg/kg/injection, schedule: Q01DX008 (sc), vehicle: saline)?
The T/C was 100 % of control.

What about the T/C (dose: 1.8 mg/kg/injection, schedule: Q01DX009 (sc), vehicle: saline) of the same compound?
The T/C was 103 % of control.

What about the T/C (dose: 1.8 mg/kg/injection, schedule: Q## X024 (sc), vehicle: saline) of the same compound?
Its T/C is 103 % of control.

And the T/C (dose: 1.87 mg/kg/injection, schedule: Q01DX005 (oral), vehicle: carboxymethylcellulose (CMC))?
Its T/C is 88 % of control.

What about the T/C (dose: 1.87 mg/kg/injection, schedule: Q## X015 (oral), vehicle: carboxymethylcellulose (CMC)) of the same compound?
Its T/C is 190 % of control.

And the T/C (dose: 1.9 mg/kg/injection, schedule: Q01DX005 (ip), vehicle: saline)?
Its T/C is 161 % of control.

And the T/C (dose: 1.9 mg/kg/injection, schedule: Q## X015 (ip), vehicle: saline)?
The T/C was 105 % of control.

And the T/C (dose: 2.3 mg/kg/injection, schedule: Q01DX024 (oral), vehicle: carboxymethylcellulose (CMC))?
Its T/C is 91 % of control and 102 % of control.

And the T/C (dose: 2.9 mg/kg/injection, schedule: Q01DX028 (sc), vehicle: saline)?
Its T/C is 155 % of control.

What about the T/C (dose: 3.0 mg/kg/injection, schedule: Q01DX008 (sc), vehicle: saline) of the same compound?
The T/C was 96 % of control.

What about the T/C (dose: 3.0 mg/kg/injection, schedule: Q01DX009 (sc), vehicle: saline) of the same compound?
Its T/C is 100 % of control.

What about the T/C (dose: 3.0 mg/kg/injection, schedule: Q01DX028 (sc), vehicle: saline) of the same compound?
Its T/C is 164 % of control and 167 % of control and 152 % of control.

What about the T/C (dose: 3.0 mg/kg/injection, schedule: Q04DX003 (sc), vehicle: saline) of the same compound?
The T/C was 109 % of control.

What about the T/C (dose: 3.0 mg/kg/injection, schedule: Q## X024 (sc), vehicle: saline) of the same compound?
The T/C was 96 % of control.

What about the T/C (dose: 3.75 mg/kg/injection, schedule: Q01DX005 (oral), vehicle: carboxymethylcellulose (CMC)) of the same compound?
Its T/C is 100 % of control and 104 % of control.

What about the T/C (dose: 3.75 mg/kg/injection, schedule: Q## X010 (oral), vehicle: carboxymethylcellulose (CMC)) of the same compound?
The T/C was 95 % of control and 97 % of control.

And the T/C (dose: 3.75 mg/kg/injection, schedule: Q## X015 (oral), vehicle: carboxymethylcellulose (CMC))?
The T/C was 214 % of control and 117 % of control.

What about the T/C (dose: 3.8 mg/kg/injection, schedule: Q## X010 (ip), vehicle: saline) of the same compound?
The T/C was 214 % of control.

And the T/C (dose: 3.8 mg/kg/injection, schedule: Q## X015 (ip), vehicle: saline)?
Its T/C is 202 % of control.

And the T/C (dose: 4.0 mg/kg/injection, schedule: Q01DX028 (sc), vehicle: methylcellulose (MC))?
Its T/C is 97 % of control.

And the T/C (dose: 4.5 mg/kg/injection, schedule: Q01DX024 (oral), vehicle: carboxymethylcellulose (CMC))?
The T/C was 88 % of control and 102 % of control.

And the T/C (dose: 5.0 mg/kg/injection, schedule: Q01DX008 (sc), vehicle: saline)?
The T/C was 96 % of control.

And the T/C (dose: 5.0 mg/kg/injection, schedule: Q01DX009 (sc), vehicle: saline)?
The T/C was 103 % of control.

What about the T/C (dose: 5.0 mg/kg/injection, schedule: Q01DX024 (ip), vehicle: saline) of the same compound?
The T/C was 111 % of control.

What about the T/C (dose: 5.0 mg/kg/injection, schedule: Q01DX028 (sc), vehicle: saline) of the same compound?
Its T/C is 104 % of control and 105 % of control.

What about the T/C (dose: 5.0 mg/kg/injection, schedule: Q04DX003 (sc), vehicle: saline) of the same compound?
Its T/C is 166 % of control.

And the T/C (dose: 5.0 mg/kg/injection, schedule: Q## X024 (sc), vehicle: saline)?
Its T/C is 96 % of control.

And the T/C (dose: 7.5 mg/kg/injection, schedule: Q01DX005 (oral), vehicle: carboxymethylcellulose (CMC))?
Its T/C is 94 % of control and 104 % of control.

And the T/C (dose: 7.5 mg/kg/injection, schedule: Q## X010 (oral), vehicle: carboxymethylcellulose (CMC))?
The T/C was 91 % of control and 95 % of control.

What about the T/C (dose: 7.5 mg/kg/injection, schedule: Q## X015 (ip), vehicle: saline) of the same compound?
Its T/C is 108 % of control.

What about the T/C (dose: 8.4 mg/kg/injection, schedule: Q01DX005 (sc), vehicle: saline) of the same compound?
The T/C was 96 % of control.

What about the T/C (dose: 8.4 mg/kg/injection, schedule: Q01DX008 (sc), vehicle: saline) of the same compound?
The T/C was 96 % of control.

What about the T/C (dose: 8.4 mg/kg/injection, schedule: Q01DX009 (sc), vehicle: saline) of the same compound?
Its T/C is 100 % of control.

And the T/C (dose: 8.4 mg/kg/injection, schedule: Q01DX028 (sc), vehicle: saline)?
Its T/C is 100 % of control.

What about the T/C (dose: 8.4 mg/kg/injection, schedule: Q04DX003 (sc), vehicle: saline) of the same compound?
Its T/C is 118 % of control.

What about the T/C (dose: 9.0 mg/kg/injection, schedule: Q01DX024 (oral), vehicle: carboxymethylcellulose (CMC)) of the same compound?
Its T/C is 88 % of control and 90 % of control.

What about the T/C (dose: 10.0 mg/kg/injection, schedule: Q01DX024 (ip), vehicle: saline) of the same compound?
The T/C was 94 % of control.

What about the T/C (dose: 14.0 mg/kg/injection, schedule: Q04DX003 (sc), vehicle: saline) of the same compound?
The T/C was 109 % of control.

What about the T/C (dose: 15.0 mg/kg/injection, schedule: Q01DX005 (ip), vehicle: saline) of the same compound?
The T/C was 91 % of control.

What about the T/C (dose: 15.0 mg/kg/injection, schedule: Q## X010 (ip), vehicle: saline) of the same compound?
Its T/C is 88 % of control.

What about the T/C (dose: 15.0 mg/kg/injection, schedule: Q## X010 (oral), vehicle: carboxymethylcellulose (CMC)) of the same compound?
The T/C was 97 % of control.

And the T/C (dose: 15.0 mg/kg/injection, schedule: Q## X015 (ip), vehicle: saline)?
The T/C was 88 % of control.

What about the T/C (dose: 15.0 mg/kg/injection, schedule: Q## X015 (oral), vehicle: carboxymethylcellulose (CMC)) of the same compound?
Its T/C is 88 % of control and 90 % of control.

And the T/C (dose: 18.0 mg/kg/injection, schedule: Q01DX001 (ip), vehicle: saline)?
The T/C was 123 % of control.

And the T/C (dose: 19.0 mg/kg/injection, schedule: Q01DX001 (oral), vehicle: carboxymethylcellulose (CMC))?
The T/C was 90 % of control.

What about the T/C (dose: 23.0 mg/kg/injection, schedule: Q04DX003 (sc), vehicle: saline) of the same compound?
Its T/C is 103 % of control.

And the T/C (dose: 30.0 mg/kg/injection, schedule: Q01DX005 (oral), vehicle: carboxymethylcellulose (CMC))?
The T/C was 88 % of control and 90 % of control.

And the T/C (dose: 30.0 mg/kg/injection, schedule: Q## X015 (oral), vehicle: carboxymethylcellulose (CMC))?
Its T/C is 90 % of control.

And the T/C (dose: 37.5 mg/kg/injection, schedule: Q01DX001 (ip), vehicle: saline)?
The T/C was 94 % of control.

What about the T/C (dose: 39.0 mg/kg/injection, schedule: Q01DX001 (sc), vehicle: saline) of the same compound?
Its T/C is 96 % of control.

And the T/C (dose: 60.0 mg/kg/injection, schedule: Q01DX005 (oral), vehicle: carboxymethylcellulose (CMC))?
The T/C was 88 % of control.

What about the T/C (dose: 65.0 mg/kg/injection, schedule: Q01DX001 (ip), vehicle: saline) of the same compound?
The T/C was 88 % of control.

And the T/C (dose: 65.0 mg/kg/injection, schedule: Q01DX001 (sc), vehicle: saline)?
The T/C was 96 % of control.

With `COc1ccc2c(c1)C(C)=CC(C)(C)N2` as the compound, how does the T/C [1] read?
The T/C was 110 % of control.

And the T/C [2]?
The T/C was 154 % of control.

What does the source list for `CC1(C)CC(C)(c2ccc(O)cc2)c2ccccc2O1` (centres undefined)?
T/C [1]: 114 % of control; T/C [2]: 114 % of control

Which T/C (dose: 0.5 mg/kg/injection, schedule: Q01DX028 (sc), vehicle: carboxymethylcellulose (CMC)) does the source give for `Cn1cnc([N+](=O)[O-])c1Sc1nc(N)nc2nc[nH]c12` here?
The T/C was 97 % of control.

What about the T/C (dose: 1.0 mg/kg/injection, schedule: Q01DX028 (sc), vehicle: carboxymethylcellulose (CMC)) of the same compound?
Its T/C is 117 % of control.

What about the T/C (dose: 4.0 mg/kg/injection, schedule: Q01DX028 (sc), vehicle: carboxymethylcellulose (CMC)) of the same compound?
The T/C was 100 % of control.

What does the source list for `N=C(N)SCc1c2ccccc2c(CSC(=N)N)c2ccccc12`?
T/C (dose: 2.5 mg/kg/injection, schedule: Q01DX028 (sc), vehicle: carboxymethylcellulose (CMC)): 97 % of control; T/C (dose: 5.0 mg/kg/injection, schedule: Q01DX028 (sc), vehicle: carboxymethylcellulose (CMC)): 112 % of control; T/C (dose: 10.0 mg/kg/injection, schedule: Q01DX028 (sc), vehicle: carboxymethylcellulose (CMC)): 95 % of control; T/C (dose: 20.0 mg/kg/injection, schedule: Q01DX028 (sc), vehicle: carboxymethylcellulose (CMC)): 117 % of control; T/C (dose: 40.0 mg/kg/injection, schedule: Q01DX028 (sc), vehicle: carboxymethylcellulose (CMC)): 115 % of control

With `CN[C@H]1CCc2cc(OC)c(OC)c(OC)c2-c2ccc(OC)c(=O)cc21` as the compound, how does the T/C (dose: 0.62 mg/kg/injection, schedule: Q01DX015 (sc), vehicle: saline) read?
The T/C was 102 % of control.

And the T/C (dose: 1.25 mg/kg/injection, schedule: Q01DX015 (sc), vehicle: saline)?
Its T/C is 102 % of control.

What about the T/C (dose: 1.25 mg/kg/injection, schedule: Q01DX028 (sc), vehicle: saline) of the same compound?
Its T/C is 107 % of control.

And the T/C (dose: 2.5 mg/kg/injection, schedule: Q01DX028 (sc), vehicle: saline)?
The T/C was 107 % of control.
